Values of other authors, collected in PMC6344942 (SLAS discovery : advancing life sciences R & D, 2017).
Like-named read-outs stand apart in the source and are kept apart here.

Target: Ubc9 (Homo sapiens, UniProt P63279)
Sequence (P63279 whole entry): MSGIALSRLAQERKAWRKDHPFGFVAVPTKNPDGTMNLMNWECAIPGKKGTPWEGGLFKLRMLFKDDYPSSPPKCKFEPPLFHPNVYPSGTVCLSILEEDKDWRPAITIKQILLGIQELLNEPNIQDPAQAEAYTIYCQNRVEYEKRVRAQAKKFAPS

SMILES | IC50 (Ubc9 inhibitor) [µM] | IC50 (prevents transfer of SUMO from Ubc9~SUMO thioester to substrate) [µM]
COC(=CC(=O)O)C1c2cc3ccc(-c4ccc5cc6c(c(O)c5c4O)C(=O)CC(C)(O)C6C(=CC(=O)O)OC)c(O)c3c(O)c2C(=O)CC1(C)O (centres unmarked) [spectomycin B1] | 4.4 | –
O=c1cc(-c2ccc(O)c(O)c2O)oc2ccccc12 [Compound 2-D08, 2-D08] | – | 6
